Experimental data: the supplement of paper PMC10307832

Tests used:
Experiment in all cases: relative viability (nuclei count vs DMSO), 5 days (fraction); higher = more cells survive
[1] = compound: COc1ccc(-c2ccc3c(N4CCOC[C@@H]4C)nc(N4CCOC[C@@H]4C)nc3n2)cc1CO [AZD8055] + CC(=O)c1c(C)c2cnc(Nc3ccc(N4CCNCC4)cn3)nc2n(C2CCCC2)c1=O [Palbociclib] (partner 0.5 µM)
Outline: (§1)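 Lung cancer cell lines in 1536-well plates were dosed by pin tool the day after seeding, either with one drug alone or with a fixed anchor-drug dose plus five library-drug doses (not always all listed) in √10 steps. After 5 days, cells were fixed and their nuclei stained in one step (final 0.05% Triton X-100, 1% formaldehyde, 1 ug/ml Hoechst), then counted on 4× images. Relative viability is the nuclei count in treated wells divided by that in vehicle wells. Values are medians of duplicate plates.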

[2] = compound: COc1ccc(-c2ccc3c(N4CCOC[C@@H]4C)nc(N4CCOC[C@@H]4C)nc3n2)cc1CO [AZD8055] + Cc1nc(NC(=O)N2CCC[C@H]2C(N)=O)sc1-c1ccnc(C(C)(C)C(F)(F)F)c1 [Alpelisib] (partner 2 µM)
Outline: as §1

[3] = compound: COc1ccc(-c2ccc3c(N4CCOC[C@@H]4C)nc(N4CCOC[C@@H]4C)nc3n2)cc1CO [AZD8055] + Nc1nc2[nH]cc(CCc3ccc(C(=O)N[C@@H](CCC(=O)O)C(=O)O)cc3)c2c(=O)[nH]1 [Pemetrexed] (partner 0.2 µM)
Outline: as §1

[4] = compound: COc1ccc(-c2ccc3c(N4CCOC[C@@H]4C)nc(N4CCOC[C@@H]4C)nc3n2)cc1CO [AZD8055] + O=C(c1cc(Cc2n[nH]c(=O)c3ccccc23)ccc1F)N1CCN(C(=O)C2CC2)CC1 [Olaparib] (partner 8 µM)
Outline: as §1

Cell Line	relative viability ([1]; first compound 0.01 µM)	relative viability ([1]; first compound 0.03162 µM)	relative viability ([1]; first compound 0.1 µM)	relative viability ([1]; first compound 0.3162 µM)	relative viability ([1]; first compound 1 µM)	relative viability ([2]; first compound 0.01 µM)	relative viability ([2]; first compound 0.03162 µM)	relative viability ([2]; first compound 0.1 µM)	relative viability ([2]; first compound 0.3162 µM)	relative viability ([2]; first compound 1 µM)	relative viability ([3]; first compound 0.01 µM)	relative viability ([3]; first compound 0.03162 µM)	relative viability ([3]; first compound 0.1 µM)	relative viability ([3]; first compound 0.3162 µM)	relative viability ([3]; first compound 1 µM)	relative viability ([4]; first compound 0.01 µM)	relative viability ([4]; first compound 0.03162 µM)	relative viability ([4]; first compound 0.1 µM)	relative viability ([4]; first compound 0.3162 µM)	relative viability ([4]; first compound 1 µM)
LXF-289	0.621	0.581	0.578	0.3	0.23	1.02	0.923	0.742	0.567	0.515	1.11	0.996	0.935	0.765	0.651	1.07	1.01	0.928	0.641	0.57
NCI-H23	0.439	0.367	0.295	0.193	0.187	0.668	0.604	0.406	0.268	0.269	0.503	0.635	0.542	0.326	0.354	0.248	0.213	0.279	0.166	0.184
NCI-H322M	0.457	0.492	0.383	0.468	0.41	0.696	0.0834	0.673	0.433	0.402	0.655	0.689	0.622	0.609	0.483	0.806	0.847	0.734	0.731	0.474
NCI-H358	0.143	0.137	0.135	0.115	0.101	0.714	0.786	0.75	0.295	0.216	0.184	0.176	0.158	0.145	0.129	0.563	0.594	0.543	0.202	0.12
NCI-H441	0.178	0.185	0.179	0.144	0.14	0.678	0.42	0.444	0.331	0.315	0.273	0.247	0.232	0.234	0.205	0.691	0.528	0.359	0.32	0.249
NCI-H460	0.154	0.108	0.0839	0.0295	0.0277	0.314	0.195	0.148	0.0795	0.0574	0.0514	0.0565	0.0535	0.0755	0.0693	0.444	0.409	0.371	0.254	0.216
NCI-H520	0.167	0.15	0.156	0.141	0.161	0.912	0.659	0.4	0.187	0.18	0.636	0.307	0.245	0.182	0.144	0.247	0.205	0.132	0.137	0.132
NCI-H647	0.348	0.219	0.245	0.102	0.0993	0.987	0.623	0.332	0.208	0.167	0.207	0.155	0.133	0.166	0.122	0.7	0.416	0.301	0.227	0.169
NCI-H650	0.371	0.307	0.273	0.196	0.165	0.968	0.834	0.695	0.385	0.385	0.981	0.691	0.843	0.371	0.299	0.484	0.38	0.357	0.217	0.175
NCI-H661	0.37	0.368	0.303	0.291	0.362	0.801	0.411	0.399	0.397	0.275	1.02	0.882	0.868	0.579	0.418	0.785	0.802	0.691	0.447	0.378
NCI-H838	0.214	0.156	0.163	0.16	0.17	0.981	0.781	0.412	0.276	0.288	0.228	0.236	0.231	0.18	0.201	0.687	0.597	0.351	0.259	0.29
NCI-H1355	0.323	0.284	0.219	0.215	0.218	0.677	0.472	0.332	0.215	0.222	1.06	0.91	0.772	0.316	0.235	0.694	0.622	0.553	0.269	0.266
NCI-H1395	0.604	0.526	0.547	0.44	0.45	1.09	0.809	0.691	0.612	0.504	0.767	0.547	0.735	0.385	0.356	0.479	0.412	0.407	0.358	0.432
NCI-H1437	0.358	0.434	0.338	0.221	0.203	0.802	0.808	0.697	0.178	0.159	0.324	0.308	0.276	0.23	0.224	0.696	0.658	0.601	0.457	0.311
NCI-H1651	0.507	0.472	0.478	0.298	0.253	1.04	0.716	0.671	0.405	0.325	0.645	0.585	0.477	0.388	0.367	0.193	0.191	0.193	0.222	0.25
NCI-H1666	0.669	0.643	0.624	0.652	0.674	0.884	0.696	0.621	0.47	0.438	0.917	0.878	0.895	0.751	0.716	0.875	0.81	0.771	0.714	0.674

Cell Line	relative viability ([1]; first compound 0.01 µM)	relative viability ([1]; first compound 0.03162 µM)	relative viability ([1]; first compound 0.1 µM)	relative viability ([1]; first compound 0.3162 µM)	relative viability ([1]; first compound 1 µM)	relative viability ([2]; first compound 0.01 µM)	relative viability ([2]; first compound 0.03162 µM)	relative viability ([2]; first compound 0.1 µM)	relative viability ([2]; first compound 0.3162 µM)	relative viability ([2]; first compound 1 µM)	relative viability ([3]; first compound 0.01 µM)	relative viability ([3]; first compound 0.03162 µM)	relative viability ([3]; first compound 0.1 µM)	relative viability ([3]; first compound 0.3162 µM)	relative viability ([3]; first compound 1 µM)	relative viability ([4]; first compound 0.01 µM)	relative viability ([4]; first compound 0.03162 µM)	relative viability ([4]; first compound 0.1 µM)	relative viability ([4]; first compound 0.3162 µM)	relative viability ([4]; first compound 1 µM)
NCI-H1734	0.378	0.386	0.288	0.215	0.192	0.762	0.554	0.378	0.226	0.23	0.45	0.375	0.41	0.385	0.323	0.675	0.555	0.458	0.298	0.199
NCI-H1755	0.42	0.44	0.388	0.368	0.359	0.879	0.744	0.607	0.378	0.363	0.462	0.423	0.384	0.424	0.461	0.767	0.765	0.677	0.446	0.378
NCI-H1792	0.677	0.585	0.417	0.359	0.307	0.447	0.482	0.361	0.131	0.108	0.764	0.343	0.193	0.108	0.108	0.503	0.379	0.0968	0.0717	0.108
NCI-H1793	0.216	0.218	0.163	0.22	0.211	0.605	0.347	0.224	0.175	0.17	0.721	0.376	0.268	0.184	0.225	0.528	0.329	0.221	0.203	0.213
NCI-H1915	0.491	0.44	0.425	0.282	0.203	1.12	0.941	0.996	0.645	0.455	0.52	0.5	0.507	0.419	0.372	0.257	0.262	0.289	0.238	0.204
NCI-H1944	0.291	0.264	0.22	0.174	0.152	0.716	0.63	0.543	0.366	0.25	0.57	0.568	0.454	0.286	0.294	0.41	0.428	0.393	0.254	0.259
NCI-H1975	0.712	0.388	0.252	0.151	0.161	0.454	0.365	0.259	0.249	0.231	0.311	0.301	0.264	0.206	0.167	0.976	0.677	0.464	0.221	0.189
NCI-H1993	0.596	0.47	0.39	0.408	0.404	0.679	0.629	0.632	0.623	0.638	0.519	0.542	0.459	0.434	0.473	1.02	0.793	0.602	0.409	0.434
NCI-H2009	0.227	0.156	0.203	0.178	0.149	1.14	1.03	0.931	0.583	0.401	1.08	1.06	1.03	0.722	0.263	0.677	0.861	0.634	0.344	0.254
NCI-H2023	0.264	0.229	0.0912	0.086	0.113	0.439	0.431	0.311	0.141	0.141	0.229	0.205	0.16	0.0973	0.122	0.434	0.402	0.224	0.148	0.142
NCI-H2085	0.493	0.448	0.386	0.37	0.3	0.896	0.758	0.575	0.382	0.372	0.827	0.74	0.481	0.31	0.268	0.858	0.822	0.553	0.387	0.354
NCI-H2087	0.212	0.198	0.159	0.113	0.141	0.996	0.924	0.809	0.44	0.381	0.646	0.587	0.588	0.427	0.292	0.625	0.519	0.451	0.263	0.217
NCI-H2126	0.323	0.329	0.362	0.284	0.323	0.75	0.655	0.601	0.382	0.371	0.693	0.622	0.649	0.579	0.401	0.916	0.833	0.709	0.493	0.363
NCI-H2170	0.331	0.314	0.233	0.173	0.143	0.691	0.623	0.386	0.288	0.252	0.287	0.288	0.255	0.24	0.248	0.67	0.572	0.37	0.198	0.183
NCI-H2228	0.696	0.477	0.388	0.168	0.166	0.621	0.297	0.222	0.19	0.272	0.41	0.345	0.233	0.171	0.171	0.763	0.432	0.217	0.187	0.228
NCI-H2347	0.428	0.44	0.384	0.346	0.352	1.19	0.934	0.674	0.467	0.413	0.456	0.449	0.442	0.414	0.435	0.57	0.491	0.502	0.328	0.395
